Data taken from patent publication US6403765B1, “Truncated Apaf-1 and methods of use thereof” (Thomas Jefferson University, priority 1998, dated 2002).
Entries after “also recorded” stand apart in the source; their conditions may differ.

Experiments:
[1] = test system: procaspase-6; experiment: Cytochrome c/dATP-dependent processing of procaspase-6 in 293 cellular S100 extract; assay type: biochemical; settings: 35S-labeled procaspase-6, 293 S100 extract, FIG. 8
Experimental: (§1) In FIG. 8, ^35S-labeled procaspase-3, -6 or -7 were incubated with S100 extracts from 293 cells in the presence or absence of cytochrome c/dATP or DEVD-CHO, or both and analyzed by SDS-PAGE followed by autoradiography. However, when DEVD-CHO was included, processing of procaspase-6 (lane 6), but not procaspase-3 (lane 3) or -7 (lane 9) was inhibited. […] Also, since caspase-7 cannot process procaspase-6 (Srinivasula et al., J. Biol. Chem. 271:27099-27106, 1996), caspase-3 is the one responsible for processing of procaspase-6 in the cytochrome c plus dATP-dependent pathway.

[2] = test system: procaspase-3; experiment: Cytochrome c/dATP-dependent processing of procaspase-3 in 293 cellular S100 extract; assay type: biochemical; settings: cytochrome c/dATP
Experimental: (§2) To confirm this, a time course analysis of procaspase-9 and procaspase-3 processing was performed in cellular S100 extracts from 293 and MCF-7 cells. […] At the indicated times the reactions were stopped and then analyzed by SDS-PAGE and autoradiography (procaspase-9 panels) or Western blot analysis using anti-caspase-3 p20 polyclonal antibody (procaspase-3 panels). Small arrows indicate a non-specific band detected by the anti-caspase-3 antibody.
as §1
(§3) In FIG. 18, 293 cellular S100 extracts supplemented with ^35S-labeled procaspase-9 (upper panel) or procaspase-3 (lower panel) were incubated with (lanes 3-7) or without (lane 2) cytochrome c plus dATP in the presence of increasing amounts of purified recombinant procaspase-9-C287A mutant for 1 hour at 30° C. and then analyzed by SDS-PAGE and autoradiography. […] Consequently, the Apaf-1/caspase-9 pathway appears to be a central apoptotic pathway, on which most apoptotic signals converge.

[3] = test system: procaspase-7; experiment: Cytochrome c/dATP-dependent processing of procaspase-7 in 293 cellular S100 extract; assay type: biochemical; settings: 35S-labeled procaspase-7, 293 S100 extract, FIG. 8
Experimental: as §1

[4] = test system: procaspase-9; experiment: Cytochrome c/dATP-dependent processing of procaspase-9 in 293 cellular S100 extract; assay type: biochemical; settings: 293 S100 extract, cytochrome c plus dATP
Experimental: To study processing of procaspase-9 in the cytochrome c/Apaf-1-dependent pathway, WT and the Asp to Ala mutants of procaspase-9 were incubated with a cellular S100 extract in the presence or absence of cytochrome c and dATP. […] Samples were then analyzed by SDS-PAGE and autoradiography.
as §2, §3

[5] = target: T1, T7-tagged Bcl-xL (UniProt Q07817 1-233); experiment: co-immunoprecipitation from co-transfected 293 cells: anti-Flag IP, anti-T7 immunoblot
T1 construct: Expressed in co-transfected 293 cells
T1 sequence (Q07817 whole entry): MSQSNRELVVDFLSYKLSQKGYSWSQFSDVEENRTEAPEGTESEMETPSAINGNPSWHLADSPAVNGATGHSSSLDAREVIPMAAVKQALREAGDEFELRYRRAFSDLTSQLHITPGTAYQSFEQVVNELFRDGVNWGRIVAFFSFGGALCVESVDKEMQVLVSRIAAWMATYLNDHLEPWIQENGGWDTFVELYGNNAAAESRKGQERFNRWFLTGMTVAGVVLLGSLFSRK
Experimental: (§4) The immunoprecipitates were analyzed by Western blotting with an anti-T7 antibody.
(§5) After 36 hours, extracts were prepared and immunoprecipitated with a monoclonal antibody to the Flag epitope. The immunoprecipitates (upper panel) were analyzed by SDS-PAGE and immunoblotted with a horseradish peroxides-conjugated T7 antibody.
(§6) In vivo interaction experiments between Apaf-1 variants and Bcl-x_L were performed. […] After 36 hours, extracts were prepared and immunoprecipitated with a monoclonal antibody to the Flag epitope. The immunoprecipitates (FIG. 16, upper panel) were analyzed by SDS-PAGE and immunoblotted with a horseradish peroxidase-conjugated T7 antibody.

[6] = target: T2, T7-tagged Apaf-530 (human, UniProt O14727 1-541); experiment: as above
T2 construct: Expressed in co-transfected 293 cells; also called T7-Apaf-530
T2 sequence: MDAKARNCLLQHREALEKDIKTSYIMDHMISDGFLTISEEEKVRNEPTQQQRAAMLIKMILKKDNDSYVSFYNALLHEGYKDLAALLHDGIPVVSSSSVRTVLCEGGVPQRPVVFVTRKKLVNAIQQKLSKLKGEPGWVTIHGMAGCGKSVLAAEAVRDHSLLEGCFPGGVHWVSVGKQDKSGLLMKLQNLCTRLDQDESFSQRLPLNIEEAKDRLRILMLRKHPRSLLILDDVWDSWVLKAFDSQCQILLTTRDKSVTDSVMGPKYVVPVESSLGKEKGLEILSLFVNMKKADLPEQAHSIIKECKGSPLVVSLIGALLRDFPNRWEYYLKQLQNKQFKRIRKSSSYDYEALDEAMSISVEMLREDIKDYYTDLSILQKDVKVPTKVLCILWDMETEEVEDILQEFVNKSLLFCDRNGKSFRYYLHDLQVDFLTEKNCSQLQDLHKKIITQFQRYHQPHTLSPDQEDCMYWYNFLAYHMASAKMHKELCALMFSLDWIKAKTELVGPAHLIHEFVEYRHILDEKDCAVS
Experimental: as §4, §5, §6

[7] = target: T3, Apaf-1 (endogenous, in 293 cellular S100 extract, with cytochrome c plus dATP)
T3 chain: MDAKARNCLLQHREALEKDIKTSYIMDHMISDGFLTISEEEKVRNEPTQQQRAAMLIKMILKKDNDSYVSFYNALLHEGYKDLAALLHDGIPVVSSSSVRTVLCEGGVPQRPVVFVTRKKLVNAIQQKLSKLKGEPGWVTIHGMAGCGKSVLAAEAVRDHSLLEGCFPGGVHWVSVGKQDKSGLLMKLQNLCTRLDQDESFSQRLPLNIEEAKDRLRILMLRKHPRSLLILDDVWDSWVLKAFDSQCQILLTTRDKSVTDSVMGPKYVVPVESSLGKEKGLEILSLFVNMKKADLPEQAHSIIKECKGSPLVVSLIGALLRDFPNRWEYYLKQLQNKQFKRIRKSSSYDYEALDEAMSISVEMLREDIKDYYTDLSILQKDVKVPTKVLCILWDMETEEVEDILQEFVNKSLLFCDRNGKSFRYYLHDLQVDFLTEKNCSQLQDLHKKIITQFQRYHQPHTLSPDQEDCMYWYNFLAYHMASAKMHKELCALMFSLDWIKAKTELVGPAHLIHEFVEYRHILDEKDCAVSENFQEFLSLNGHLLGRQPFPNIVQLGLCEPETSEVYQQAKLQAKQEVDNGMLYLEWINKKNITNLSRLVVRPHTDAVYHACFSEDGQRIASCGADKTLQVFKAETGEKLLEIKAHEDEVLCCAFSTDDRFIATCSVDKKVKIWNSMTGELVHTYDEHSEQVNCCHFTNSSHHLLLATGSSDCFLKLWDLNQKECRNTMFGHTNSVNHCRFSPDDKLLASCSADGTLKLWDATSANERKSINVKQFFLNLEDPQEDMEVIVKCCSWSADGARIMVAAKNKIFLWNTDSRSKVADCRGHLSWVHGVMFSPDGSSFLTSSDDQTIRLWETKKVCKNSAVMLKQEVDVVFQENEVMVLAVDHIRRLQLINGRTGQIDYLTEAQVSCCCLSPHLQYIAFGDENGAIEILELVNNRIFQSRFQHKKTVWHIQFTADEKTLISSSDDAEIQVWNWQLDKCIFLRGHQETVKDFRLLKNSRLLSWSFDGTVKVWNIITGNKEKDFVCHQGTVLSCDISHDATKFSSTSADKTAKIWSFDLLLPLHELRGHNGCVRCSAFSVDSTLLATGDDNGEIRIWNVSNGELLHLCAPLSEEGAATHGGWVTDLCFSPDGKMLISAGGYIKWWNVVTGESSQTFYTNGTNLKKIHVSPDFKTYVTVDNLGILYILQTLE

[8] = target: T4, recombinant Apaf-530 (Ni2+-affinity purified, bacterially expressed, C-terminal His6 tag)
T4 chain: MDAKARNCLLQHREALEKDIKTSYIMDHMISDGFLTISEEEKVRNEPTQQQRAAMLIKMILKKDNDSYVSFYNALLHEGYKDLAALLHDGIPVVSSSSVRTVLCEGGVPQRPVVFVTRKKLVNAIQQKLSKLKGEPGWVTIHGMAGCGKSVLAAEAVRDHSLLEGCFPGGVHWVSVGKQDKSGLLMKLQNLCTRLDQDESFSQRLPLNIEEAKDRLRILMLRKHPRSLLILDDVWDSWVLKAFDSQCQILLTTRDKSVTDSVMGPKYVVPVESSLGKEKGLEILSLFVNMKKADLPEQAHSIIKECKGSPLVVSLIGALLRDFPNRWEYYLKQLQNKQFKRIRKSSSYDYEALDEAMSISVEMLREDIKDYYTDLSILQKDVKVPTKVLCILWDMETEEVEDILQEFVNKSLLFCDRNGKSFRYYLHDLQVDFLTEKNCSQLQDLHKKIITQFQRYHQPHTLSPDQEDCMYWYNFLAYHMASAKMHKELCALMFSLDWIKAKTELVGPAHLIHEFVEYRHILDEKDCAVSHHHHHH

[9] = 293 S100 extract, Western blot, FIG. 5

Asp-Glu-Val-Asp-aldehyde [DEVD-CHO]
inhibition of processing of procaspase-6 [1]: inhibited
inhibition of processing of procaspase-3 ([2]; 35S-labeled procaspase-3, 293 S100 extract, FIG. 8): not
effect on processing of procaspase-3 [2, 9]: slightly attenuated
inhibition of autoconversion of caspase-3-p20 to p19 [2, 9]: blocked
inhibition of processing of procaspase-7 [3]: not
inhibition of procaspase-9 processing at Asp315 (autocatalytic generation of p35 fragment) [4]: not and did not block
inhibition of procaspase-9 processing at Asp330 (generation of p37 fragment) [4]: sensitive to inhibition; also recorded: blocked

B1: Flag-tagged Apaf-97 (other, not shown: small tags and cut ends)
chain: MDAKARNCLLQHREALEKDIKTSYIMDHMISDGFLTISEEEKVRNEPTQQQRAAMLIKMILKKDNDSYVSFYNALLHEGYKDLAALLHDGIPVVSSS
notes: Expressed in co-transfected 293 cells; also called Flag-Apaf-97
binding result [5]: no binding
binding result [6]: no binding

B2: purified recombinant procaspase-9-C287A mutant (protein)
chain: MDEADRRLLRRCRLRLVEELQVDQLWDALLSRELFRPHMIEDIQRAGSGSRRDQARQLIIDLETRGSQALPLFISCLEDTGQDMLASFLRTNRQAAKLSKPTLENLTPVVLRPEIRKPEVLRPETPRPVDIGSGGFGDVGALESLRGNADLAYILSMEPCGHCLIINNVNFCRESGLRTRTGSNIDCEKLRRRFSSLHFMVEVKGDLTAKKMVLALLELAQQDHGALDCCVVVILSHGCQASHLQFPGAVYGTDGCPVSVEKIVNIFNGTSCPSLGGKPKLFFIQAAGGEQKDHGFEVASTSPEDESPGSNPEPDATPFQEGLRTFDQLDAISSLPTPSDIFVSYSTFPGFVSWRDPKSGSWYVETLDDIFEQWAHSEDLQSLLLRVANAVSVKGIYKQMPGCFNFLRKKLFFKTS
cytochrome c/dATP-induced activation of procaspase-9 and procaspase-3 in the 293 S100 extract [7]: able to attenuate cytochrome c/dATP-induced activation of procaspase-9 and procaspase-3 in the 293 S100 extract in a dose-dependent manner
Apaf-530-induced activation of procaspase-9 in the in vitro reconstituted system [8]: A similar result was also obtained with the Apaf-530-induced activation of procaspase-9 in the in vitro reconstituted system (data not shown)
